According to patent US7442393B2, “Herbal extracts of Salicornia species, process of preparation thereof, use thereof against tuberculosis” (priority 2003, dated 2008):

System: M. tuberculosis H37Rv
Assay: In vivo screening of antitubercular activity in infected mice model of experimental tuberculosis
Design: species or system Female swiss mice
Conditions: 25 mg/kg body weight for 10 days after infection

C[C@@H]1CN(c2c(F)c(N)c3c(=O)c(C(=O)O)cn(C4CC4)c3c2F)C[C@H](C)N1 [sparfloxicin]
general health and body weight of infected mice: healthy, gained weight
mortality of infected mice: none of the mice died
